Measurements published in ChEMBL document CHEMBL1828549, “Novel C-4'' modified azithromycin analogs with remarkably enhanced activity against erythromycin-resistant Streptococcus pneumoniae: the synthesis and antimicrobial evaluation” (2011).
In brackets after ≈: the same amount, converted by molar mass.

Columns and labels:
Streptococcus pneumoniae [1] = assay: Antibacterial activity against erythromycin-resistant Streptococcus pneumoniae B1 expressing erm gene by the broth microdilution method; type: functional
Streptococcus pneumoniae [2] = assay: Antibacterial activity against erythromycin-resistant Streptococcus pneumoniae A22072 expressing mef gene by the broth microdilution method; type: functional
Staphylococcus aureus [3] = assay: Antibacterial activity against erythromycin-susceptible Staphylococcus aureus ATCC 25923 by the broth microdilution method; type: functional
Streptococcus pneumoniae [4] = assay: Ratio of MIC for erythromycin-resistant Streptococcus pneumoniae B1 expressing erm gene to MIC of reference compound for the same strain
Staphylococcus aureus [5] = assay: Antibacterial activity against […] Staphylococcus aureus ATCC 29213 by the broth microdilution method; type: functional
Streptococcus pneumoniae [6] = assay: Antibacterial activity against erythromycin-resistant Streptococcus pneumoniae AB11 expressing erm and mef gene by the broth microdilution method; type: functional
Streptococcus pneumoniae [7] = assay: Ratio of azithromycin MIC to compound MIC for erythromycin-resistant Streptococcus pneumoniae A22072 expressing mef gene; type: functional
Staphylococcus aureus [8] = assay: Antibacterial activity against penicillin-resistant Staphylococcus aureus by the broth microdilution method; type: functional
Streptococcus pneumoniae [9] = assay: Ratio of erythromycin-A MIC to compound MIC for erythromycin-resistant Streptococcus pneumoniae A22072 expressing mef gene; type: functional
Streptococcus pneumoniae [10] = assay: Antibacterial activity against erythromycin-susceptible Streptococcus pneumoniae ATCC 49619 by the broth microdilution method; type: functional
Streptococcus pneumoniae [11] = assay: Ratio of MIC for Streptococcus pneumoniae AB11 expressing erm and mef gene to MIC of reference compound for the same strain

SMILES | MIC (Streptococcus pneumoniae [1]) [µg/mL] | MIC (Streptococcus pneumoniae [2]) [µg/mL] | MIC (Staphylococcus aureus [3]) [µg/mL] | Ratio (Streptococcus pneumoniae [4]) | MIC (Staphylococcus aureus [5]) [µg/mL] | MIC (Streptococcus pneumoniae [6]) [µg/mL] | Ratio (Streptococcus pneumoniae [7]) | MIC (Staphylococcus aureus [8]) [µg/mL] | Ratio (Streptococcus pneumoniae [9]) | MIC (Streptococcus pneumoniae [10]) [µg/mL] | Ratio (Streptococcus pneumoniae [11])
CC[C@H]1OC(=O)[C@H](C)[C@@H](O[C@H]2C[C@@](C)(OC)[C@@H](OC(=O)NNC(=O)c3ccc(C)cc3)[C@H](C)O2)[C@H](C)[C@@H](O[C@@H]2O[C@H](C)C[C@H](N(C)C)[C@H]2O)[C@](C)(O)C[C@@H](C)CN(C)[C@H](C)[C@H]2OC(=O)O[C@@]21C | 2 (≈ 2.1 µM) | 0.12 (≈ 0.126 µM) | 4 (≈ 4.21 µM) | 64 | 4 (≈ 4.21 µM) | 16 (≈ 16.8 µM) | 32 | 4 (≈ 4.21 µM) | 64 | 1 (≈ 1.05 µM) | 16
CC[C@H]1OC(=O)[C@H](C)[C@@H](O[C@H]2C[C@@](C)(OC)[C@@H](OC(=O)NCCNC(=O)c3cc([N+](=O)[O-])cc([N+](=O)[O-])c3)[C@H](C)O2)[C@H](C)[C@@H](O[C@@H]2O[C@H](C)C[C@H](N(C)C)[C@H]2O)[C@](C)(O)C[C@@H](C)CN(C)[C@H](C)[C@H]2OC(=O)O[C@@]21C | 1 (≈ 0.948 µM) | 0.12 (≈ 0.114 µM) | 16 (≈ 15.2 µM) | 128 | 8 (≈ 7.58 µM) | 8 (≈ 7.58 µM) | 32 | 1 (≈ 0.948 µM) | 64 | 0.12 (≈ 0.114 µM) | 32
CC[C@H]1OC(=O)[C@H](C)[C@@H](O[C@H]2C[C@@](C)(OC)[C@@H](OC(=O)NCCCCNC(=O)c3ccc(OC)c(OC)c3)[C@H](C)O2)[C@H](C)[C@@H](O[C@@H]2O[C@H](C)C[C@H](N(C)C)[C@H]2O)[C@](C)(O)C[C@@H](C)CN(C)[C@H](C)[C@H]2OC(=O)O[C@@]21C | 32 (≈ 30.4 µM) | 1 (≈ 0.949 µM) | 8 (≈ 7.6 µM) | – | 64 (≈ 60.8 µM) | 32 (≈ 30.4 µM) | – | 16 (≈ 15.2 µM) | – | 2 (≈ 1.9 µM) | –
CC[C@H]1OC(=O)[C@H](C)[C@@H](O[C@H]2C[C@@](C)(OC)[C@@H](OC(=O)NCCCCNC(=O)c3ccc(C)cc3)[C@H](C)O2)[C@H](C)[C@@H](O[C@@H]2O[C@H](C)C[C@H](N(C)C)[C@H]2O)[C@](C)(O)C[C@@H](C)CN(C)[C@H](C)[C@H]2OC(=O)O[C@@]21C | 8 (≈ 7.94 µM) | 1 (≈ 0.993 µM) | 4 (≈ 3.97 µM) | – | 32 (≈ 31.8 µM) | 16 (≈ 15.9 µM) | – | 64 (≈ 63.5 µM) | – | 0.5 (≈ 0.496 µM) | –
CC[C@H]1OC(=O)[C@H](C)[C@@H](O[C@H]2C[C@@](C)(OC)[C@@H](OC(=O)NCCCCNC(=O)c3ccc(F)cc3)[C@H](C)O2)[C@H](C)[C@@H](O[C@@H]2O[C@H](C)C[C@H](N(C)C)[C@H]2O)[C@](C)(O)C[C@@H](C)CN(C)[C@H](C)[C@H]2OC(=O)O[C@@]21C | 32 (≈ 31.6 µM) | 8 (≈ 7.91 µM) | 8 (≈ 7.91 µM) | – | 16 (≈ 15.8 µM) | 64 (≈ 63.3 µM) | – | 32 (≈ 31.6 µM) | – | 0.5 (≈ 0.494 µM) | –
CC[C@H]1OC(=O)[C@H](C)[C@@H](O[C@H]2C[C@@](C)(OC)[C@@H](OC(=O)NCCCCNC(=O)c3ccc(Cl)cc3)[C@H](C)O2)[C@H](C)[C@@H](O[C@@H]2O[C@H](C)C[C@H](N(C)C)[C@H]2O)[C@](C)(O)C[C@@H](C)CN(C)[C@H](C)[C@H]2OC(=O)O[C@@]21C | 8 (≈ 7.78 µM) | 1 (≈ 0.973 µM) | 4 (≈ 3.89 µM) | – | 8 (≈ 7.78 µM) | 16 (≈ 15.6 µM) | – | 64 (≈ 62.3 µM) | – | 0.5 (≈ 0.487 µM) | –
CC[C@H]1OC(=O)[C@H](C)[C@@H](O[C@H]2C[C@@](C)(OC)[C@@H](OC(=O)NCCCCNC(=O)c3ccc(Br)cc3)[C@H](C)O2)[C@H](C)[C@@H](O[C@@H]2O[C@H](C)C[C@H](N(C)C)[C@H]2O)[C@](C)(O)C[C@@H](C)CN(C)[C@H](C)[C@H]2OC(=O)O[C@@]21C | 8 (≈ 7.46 µM) | 1 (≈ 0.933 µM) | 8 (≈ 7.46 µM) | – | 32 (≈ 29.8 µM) | 16 (≈ 14.9 µM) | – | 32 (≈ 29.8 µM) | – | 1 (≈ 0.933 µM) | –
CC[C@H]1OC(=O)[C@H](C)[C@@H](O[C@H]2C[C@@](C)(OC)[C@@H](OC(=O)NCCCCNC(=O)c3ccc(Cl)cc3Cl)[C@H](C)O2)[C@H](C)[C@@H](O[C@@H]2O[C@H](C)C[C@H](N(C)C)[C@H]2O)[C@](C)(O)C[C@@H](C)CN(C)[C@H](C)[C@H]2OC(=O)O[C@@]21C | 4 (≈ 3.77 µM) | 1 (≈ 0.941 µM) | 2 (≈ 1.88 µM) | – | 16 (≈ 15.1 µM) | 16 (≈ 15.1 µM) | – | 64 (≈ 60.3 µM) | – | 1 (≈ 0.941 µM) | –
CC[C@H]1OC(=O)[C@H](C)[C@@H](O[C@H]2C[C@@](C)(OC)[C@@H](OC(=O)NCCCCNC(=O)c3ccc([N+](=O)[O-])cc3)[C@H](C)O2)[C@H](C)[C@@H](O[C@@H]2O[C@H](C)C[C@H](N(C)C)[C@H]2O)[C@](C)(O)C[C@@H](C)CN(C)[C@H](C)[C@H]2OC(=O)O[C@@]21C | 2 (≈ 1.93 µM) | 0.5 (≈ 0.482 µM) | 4 (≈ 3.85 µM) | – | 4 (≈ 3.85 µM) | 16 (≈ 15.4 µM) | – | 32 (≈ 30.8 µM) | – | 0.12 (≈ 0.116 µM) | –
CC[C@H]1OC(=O)[C@H](C)[C@@H](O[C@H]2C[C@@](C)(OC)[C@@H](OC(=O)NCCCCNC(=O)c3cc([N+](=O)[O-])cc([N+](=O)[O-])c3)[C@H](C)O2)[C@H](C)[C@@H](O[C@@H]2O[C@H](C)C[C@H](N(C)C)[C@H]2O)[C@](C)(O)C[C@@H](C)CN(C)[C@H](C)[C@H]2OC(=O)O[C@@]21C | 1 (≈ 0.923 µM) | 0.12 (≈ 0.111 µM) | 2 (≈ 1.85 µM) | 128 | 4 (≈ 3.69 µM) | 8 (≈ 7.39 µM) | 32 | 16 (≈ 14.8 µM) | 64 | 0.12 (≈ 0.111 µM) | 32
CC[C@H]1OC(=O)[C@H](C)[C@@H](O[C@H]2C[C@@](C)(OC)[C@@H](O)[C@H](C)O2)[C@H](C)[C@@H](O[C@@H]2O[C@H](C)C[C@H](N(C)C)[C@H]2O)[C@](C)(O)C[C@@H](C)CN(C)[C@H](C)[C@@H](O)[C@]1(C)O [AZITHROMYCIN] | 128 (≈ 171 µM) | 4 (≈ 5.34 µM) | 0.25 (≈ 0.334 µM) | – | 1 (≈ 1.34 µM) | 256 (≈ 342 µM) | – | 0.12 (≈ 0.16 µM) | – | 0.03 (≈ 0.0401 µM) | –
CC[C@H]1OC(=O)[C@H](C)[C@@H](O[C@H]2C[C@@](C)(OC)[C@@H](O)[C@H](C)O2)[C@H](C)[C@@H](O[C@@H]2O[C@H](C)C[C@H](N(C)C)[C@H]2O)[C@](C)(O)C[C@@H](C)C(=O)[C@H](C)[C@@H](O)[C@]1(C)O [ERYTHROMYCIN] | 128 (≈ 174 µM) | 8 (≈ 10.9 µM) | 0.06 (≈ 0.0818 µM) | – | 0.12 (≈ 0.164 µM) | 256 (≈ 349 µM) | – | 0.25 (≈ 0.341 µM) | – | 0.03 (≈ 0.0409 µM) | –
